In patent US20260035384A1, “COMPOUND CONTAINING CYCLOHEXYL” (CHIA TAI TIANQING PHARMACEUTICAL GROUP CO., LTD., priority 2022, published 2026):
Where a chain is given by its changes, count along the chain named. pIC50: −log10 of the molar value. Like-named read-outs stand apart in the source and are kept apart here.

Legend:
LNCaP cells = experiment: Assay on inhibitory activity for LNCaP cell proliferation (CCK-8); type: cell-based; settings: 168 h incubation
How it was run: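 Cells seeded at 1×10^5 cells/mL in phenol red-free 1640 with 2% CSS-FBS, treated at final 10000 nM-0.61 nM in duplicate. After 168 h incubation, viability read with CCK-8.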

[1] = In vitro stability in liver microsome; type: in vitro ADME; settings: human liver microsome 0.5 mg/mL, NADPH, 37° C.
Method: Liver microsome incubation samples (species: human, monkey, rat, and mouse) were prepared by mixing a PBS buffer (pH=7.4), a liver microsome solution (0.5 mg/mL), a test compound, and an NADPH+MgCl2 solution and incubated at 37° C. and 300 rpm for 1 h. Zero-hour samples were prepared by mixing a PBS buffer (pH=7.4), a liver microsome solution (0.5 mg/mL), and a test compound. An acetonitrile solution containing an internal standard was added to the samples, and supernatants were prepared by protein precipitation, diluted, and then assayed by LC/MS/MS.

VCaP cells = experiment: Assay on inhibitory activity for VCaP cell proliferation (CCK-8); type: cell-based; settings: Homo sapiens, 168 h incubation
How it was run: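 VCaP cells seeded at 1×10^5 cells/mL in phenol red-free DMEM with 5% charcoal-stripped FBS, treated in duplicate at 10000–0.61 nM final. After 168 h incubation, viability was read with CCK-8.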

AR in LNCaP cells = target: T1, AR in LNCaP cells (Homo sapiens, UniProt P10275, T878A); experiment: Assay on degradation activity for AR in LNCaP cells (HTRF human androgen receptor detection kit); type: cell-based; settings: 24 h incubation; for Dmax: maximum degradation rate; for DC50: HTRF
T1 construct: Assay on Degradation Activity for AR in LNCaP Cells; endogenous in cells; host or cells: LNCaP cells
T1 sequence (P10275 1-920 T878A): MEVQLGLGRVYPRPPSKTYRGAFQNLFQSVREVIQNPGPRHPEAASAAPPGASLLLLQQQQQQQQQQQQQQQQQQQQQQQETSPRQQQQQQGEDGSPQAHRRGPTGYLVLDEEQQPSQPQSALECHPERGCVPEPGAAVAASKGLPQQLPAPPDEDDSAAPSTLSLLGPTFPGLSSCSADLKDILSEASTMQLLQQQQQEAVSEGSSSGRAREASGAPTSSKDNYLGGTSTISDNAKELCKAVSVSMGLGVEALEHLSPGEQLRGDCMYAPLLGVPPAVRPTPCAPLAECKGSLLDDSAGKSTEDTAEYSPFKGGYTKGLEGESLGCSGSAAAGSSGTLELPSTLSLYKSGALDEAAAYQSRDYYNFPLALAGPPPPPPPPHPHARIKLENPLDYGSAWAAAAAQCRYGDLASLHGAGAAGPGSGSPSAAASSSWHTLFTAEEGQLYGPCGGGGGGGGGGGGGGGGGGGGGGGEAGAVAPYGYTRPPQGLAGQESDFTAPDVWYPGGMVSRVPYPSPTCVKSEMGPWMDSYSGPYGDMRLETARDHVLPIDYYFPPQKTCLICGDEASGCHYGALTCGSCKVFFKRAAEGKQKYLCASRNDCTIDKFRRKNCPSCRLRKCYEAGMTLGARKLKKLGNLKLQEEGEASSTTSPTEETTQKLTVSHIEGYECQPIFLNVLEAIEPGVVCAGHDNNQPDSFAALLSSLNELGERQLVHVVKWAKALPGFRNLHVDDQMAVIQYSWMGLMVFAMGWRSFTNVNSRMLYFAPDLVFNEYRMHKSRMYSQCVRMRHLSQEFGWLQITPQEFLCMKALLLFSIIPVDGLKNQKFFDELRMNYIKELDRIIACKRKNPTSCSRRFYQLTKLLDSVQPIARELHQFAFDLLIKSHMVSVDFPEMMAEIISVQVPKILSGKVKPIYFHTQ
Method: (§1) The detection was carried out using the HTRF HUMAN ANDROGEN RECEPTOR DETECTION KIT (cisbio, 64ANDRPEG), 4× Supplemented Lysis buffer was prepared using the Blocking reagent stock solution (100×) and Lysis buffer stock solution (4×), and 1× Supplemented Lysis buffer was prepared using the 4× Supplemented Lysis buffer and ddH2O. Premixed antibody solutions were prepared using Detection buffer, Androgen Receptor Eu Cryptate antibody, and Androgen Receptor d2 antibody.
(§2) LNCaP cells in a good growth state were taken, washed with PBS, digested with pancreatin, and added with 2% CSS—FBS phenol red-free 1640 complete medium to terminate the digestion. The cells were collected by using a centrifuge tube, adjusted to a cell density of 1×10^6 cells/mL, and seeded in a 96-well plate (100 μL/well). The cells were incubated overnight in a cell incubator. Compounds were added using a nanoliter pipettor such that the final concentrations of the compounds were 500 nM-0.488 nM. Two duplicate wells were set for each concentration, and meanwhile, a control was set. After another 24 h of incubation in the cell incubator, the medium was pipetted out, the 1× Supplemented Lysis buffer was added at 40 μL/well to lyse the cells. After the cells were oscillated for 40 min at room temperature, 16 μL of the cell lysate was added to a 384-well plate, the Premixed antibody solutions were added at 4 μL/well, and the mixture was left to stand at 25° C. for 2 h. Fluorescence values were detected at 665 nm/620 nm using an Envision microplate reader, the four-parameter analysis was performed, the dose-response curves were fit, and DC50 (the concentration of the drug when the degradation rate reaches 50%) and Dmax (the maximum degradation rate) were calculated.

AR in VCaP cells = target: T2, AR in VCaP cells (Homo sapiens, UniProt P10275); experiment: Assay on degradation activity for AR in VCaP cells (HTRF human androgen receptor detection kit); type: cell-based; settings: 24 h incubation
T2 construct: Assay on Degradation Activity for AR in VCaP Cells; endogenous in cells; host or cells: VCaP cells
T2 sequence (P10275 1-920): T1 sequence (P10275 1-920 T878A) with A878T
Method: as §1
as §2, with “VCaP” for “LNCaP”, “DMEM” for “1640”, “µL/well).” for “μL/well).”, “1000 nM-0.977” for “500 nM-0.488”

Mouse pharmacokinetics = type: in vivo, ICR mice; settings: ICR, mouse, plasma; for AUC: read-out: AUC; for bioavailability: Mouse i.g. 10 mpk vs i.v. 1 mpk; for Cmax: read-out: Cmax
Method: ICR mice weighing 18-22 g were randomized into groups of 9 after 3-5 days of acclimatization, and then intragastrically given the test compound solution at a dose of 10 mg/kg and intravenously injected with the test compound solution at a dose of 1 mg/kg.
Blood sampling time points for the intragastrical administration group were 15 min, 0.5 h, 1 h, 2 h, 3 h, 4 h, 6 h, 8 h, 10 h, and 24 h, and blood sampling time points for the intravenous injection administration group were […], 15 min, 0.5 h, 1 h, 2 h, 4 h, 6 h, 8 h, 10 h, and 24 h; blood was collected from the orbit to prepare plasma samples to be tested. 30 μL of each of the plasma samples to be tested and a standard curve sample were taken, and an acetonitrile solution containing an internal standard was added. Supernatants were obtained by protein precipitation, diluted, and then assayed by LC/MS/MS. Pharmacokinetic parameters were fitted using a non-compartmental model (see Table 6).

[2] = po, 10 mg/kg, Mouse i.g. 10 mpk

pIC50 (LNCaP cells; Homo sapiens)	Human liver microsome Residuals at 60 min (%) [1]	DC50 (AR in VCaP cells)	pIC50 (VCaP cells; VCaP, 168 h)	DC50 (AR in LNCaP cells)	SMILES	pIC50 (VCaP cells)	Dmax (AR in LNCaP cells)	also measured
> 6.00	>85%				N#Cc1ccc(O[C@H]2CC[C@H](NC(=O)c3ccc(N4CCC(CN5CC6(Cc7ccc8c(C9CCC(=O)NC9=O)noc8c7C6)C5)CC4)nn3)CC2)cc1Cl (stereo partly shown) [Compound 21]			
> 6.00		≤ 1 nM	> 8.00	≤ 20 nM	N#Cc1ccc(O[C@H]2CC[C@H](NC(=O)c3ccc(N4CCC(N5CC(CN6CCc7ccc8c(C9CCC(=O)NC9=O)noc8c7C6)C5)CC4)nn3)CC2)cc1Cl (stereo partly shown) [Compound 91]		> 80%	
> 6.00	>85%		> 7.00		N#Cc1ccc(O[C@H]2CC[C@H](NC(=O)c3cnc(N4CCC(CN5Cc6ccc7c(C8CCC(=O)NC8=O)noc7c6C5)CC4)nc3)CC2)cc1Cl (stereo partly shown) [Compound 119]			clearance (Mouse pharmacokinetics; iv, 1 mg/kg, Mouse i.v. 1 mpk): 5.8 mL/min/kg; half-life (Mouse pharmacokinetics; iv, 1 mg/kg, Mouse i.v. 1 mpk): 11.5 h; AUC (Mouse pharmacokinetics; iv, 1 mg/kg, Mouse i.v. 1 mpk): 2720 ng·h/mL; half-life (Mouse pharmacokinetics; [2]): 8.6 h; bioavailability (Mouse pharmacokinetics; po, 10 mg/kg): 39%; AUC (Mouse pharmacokinetics; [2]): 10600 ng·h/mL; Cmax (Mouse pharmacokinetics; [2]): 559 ng/mL
> 6.00		≤ 1 nM	> 7.00	≤ 20 nM	N#Cc1ccc(O[C@H]2CC[C@H](NC(=O)c3cnc(N4CCN(C5CN(CC6Cc7ccc8c(C9CCC(=O)NC9=O)coc8c7C6)C5)CC4)nc3)CC2)cc1Cl (stereo partly shown) [Compound 109]		> 80%	
	>85%				N#Cc1ccc(O[C@H]2CC[C@H](NC(=O)c3ccc(N4CCC5(CC4)CN(C4Cc6ccc7c(C8CCC(=O)NC8=O)noc7c6C4)C5)nn3)CC2)cc1Cl (single isomer, unassigned) [Compound 25]			pIC50 (LNCaP cells): > 6.00
> 6.00	>85%				N#Cc1ccc(O[C@H]2CC[C@H](NC(=O)c3ccc(N4CCC5(CC4)CN(C4Cc6ccc7c(C8CCC(=O)NC8=O)noc7c6C4)C5)nn3)CC2)cc1Cl (single isomer, unassigned) [Compound 24]			
> 6.00	>85%			≤ 20 nM	N#Cc1ccc(O[C@H]2CC[C@H](NC(=O)c3ccc(N4CCC(CN5CCc6ccc7c(C8CCC(=O)NC8=O)noc7c6C5)CC4)nn3)CC2)cc1Cl (stereo partly shown) [Compound 18]		> 80%	clearance (Mouse pharmacokinetics; iv, 1 mg/kg, Mouse i.v. 1 mpk): 2.7 mL/min/kg; AUC (Mouse pharmacokinetics; iv, 1 mg/kg, Mouse i.v. 1 mpk): 5930 ng·h/mL; half-life (Mouse pharmacokinetics; [2]): 5.52 h; bioavailability (Mouse pharmacokinetics; po, 10 mg/kg): 31%; AUC (Mouse pharmacokinetics; [2]): 18400 ng·h/mL; Cmax (Mouse pharmacokinetics; [2]): 1200 ng/mL

SMILES	pIC50 (LNCaP cells; Homo sapiens)	Human liver microsome Residuals at 60 min (%) [1]	DC50 (AR in VCaP cells)	pIC50 (VCaP cells; VCaP, 168 h)	DC50 (AR in LNCaP cells)	pIC50 (VCaP cells)	Dmax (AR in LNCaP cells)	also measured
N#Cc1ccc(O[C@H]2CC[C@H](NC(=O)c3ccc(N4CCC5(CC4)CC(CN4Cc6ccc7c(C8CCC(=O)NC8=O)noc7c6C4)C5)nn3)CC2)cc1Cl.O=C(O)/C=C\C(=O)O (stereo partly shown) [Compound 34]	> 6.00	>85%				> 7.00	> 80%	
N#Cc1ccc(O[C@H]2CC[C@H](NC(=O)c3ccc(N4CCC5(CC4)CC(CN4CCc6c(ccc7c(C8CCC(=O)NC8=O)noc67)C4)C5)nn3)CC2)cc1Cl (stereo partly shown) [Compound 36]	> 6.00		≤ 1 nM		≤ 20 nM	> 8.00	> 80%	
N#Cc1ccc(O[C@H]2CC[C@H](NC(=O)c3ccc(C4CCN(CC5CN(c6cc7onc(C8CCC(=O)NC8=O)c7c7ccccc67)C5)CC4)nn3)CC2)cc1Cl (stereo partly shown) [Compound 47]		>85%			≤ 20 nM	> 8.00	> 80%	
